Test results published in PMC7449215, “Caspofungin Weight-Based Dosing Supported by a Population Pharmacokinetic Model in Critically Ill Patients” (Antimicrobial Agents and Chemotherapy, 2020).

Columns and labels:
[1] = doses of up to 200 mg daily for an extended period of time; cited from earlier work
[2] = cited from earlier work
From the text: This study has some limitations. […] As caspofungin is highly protein bound (∼97%), the extent of protein binding can change in ICU patients, and the measurement of unbound fractions may be useful; however, drug assessment can be difficult, as small absolute errors translate into large relative errors in highly protein-bound drugs ([26], [27]). Second, the PK/PD target for AUC is not well established in clinical trials, and the currently used targets are based on murine model ...

[3] = critically ill patients; cited from earlier work
Description: It has been shown in healthy adults that with increasing weight, both V and clearance (CL) increase ([17]). […] Other models have also included weight as a covariate and obtained similar results ([10], [18]). Furthermore, Nguyen et al. described that caspofungin exposure was influenced by albumin concentration and body weight ([19]). During our model development, albumin was also tested ...

[4] = two-compartment population pharmacokinetic model (Pmetrics NPAG) in critically ill ICU patients; assay type: in vivo, human; conditions: 20 ICU patients
Description: This study included data from a prospective study in 20 adult critically ill patients admitted to an ICU with suspected invasive candidiasis and treated with caspofungin ([6]). For more details about the study population, see our previous publication ([6]).
All patients received a loading dose of 70 mg on the first day of treatment. The subsequent dose was 50 mg for patients weighing ≤80 kg, 70 mg for patients weighing >80 kg, and 35 mg and 50 mg, respectively, for patients with moderate hepatic impairment (Child-Pugh score of 7 to 9) ([8]). Caspofungin was administered as a 1-h infusion.
As the steady state for caspofungin is reached on the second day after the loading dose, blood sampling was performed on day 3 (range, 2 to 4) ([22]). […] The rationale for this target is described in detail in our previous publication ([6]). The sampling was performed before the administration and 1, 2, 3, 4, 6, 8, 12, and 24 h after the start of the caspofungin infusion. Caspofungin plasma concentrations were measured using a validated liquid chromatography-tandem mass spectrometry assay ([30]).
The pharmacokinetic modeling, probability of target attainment, and visual predictive checks were performed using the nonparametric adaptive grid program (NPAG) in Pmetrics (version 1.5.2) for R (version 3.6.1) (Laboratory of Applied Pharmacokinetics and Bioinformatics, Los Angeles, CA) ([16]).
The covariate selection was performed using the PMstep command of Pmetrics. Each covariate was tested in a linear regression analysis on pharmacokinetic parameters to see if there was a significant effect on AIC value (P < 0.05). […] The covariates, tested with a forward addition method, were weight, age, gender, concomitant administration of prednisolone/hydrocortisone, dialysis, aspartate aminotransferase (AST), alanine aminotransferase (ALT), gamma-glutamyl transpeptidase (GGT), bilirubin, albumin, C-reactive protein, leukocyte count, and simplified acute physiology score (SAPS 3).
The models were analyzed and compared using individual and population observed versus predicted goodness-of-fit plots, AIC, BIC, and −2 log likelihood. The prediction error was evaluated using bias (mean weighted prediction error) and imprecision (bias-adjusted mean weighted squared prediction error) for both the individual and population models. During the population modeling assay, error (standard deviation) and environmental noise were considered. For this, we used error polynomials in the following equation: standard deviation = C0 + C1 × observed concentration. The value 0.05 was used for C0 and 0.08 for C1. Gamma multiplicative and lambda additive error models were tested to estimate residual error ([12], [31]).

Q: Which tolerability [1] does the source give for `CC[C@H](C)C[C@H](C)CCCCCCCCC(=O)N[C@H]1C[C@@H](O)[C@@H](NCCN)NC(=O)[C@@H]2[C@@H](O)CCN2C(=O)[C@H]([C@H](O)CCN)NC(=O)[C@H]([C@H](O)[C@@H](O)c2ccc(O)cc2)NC(=O)[C@@H]2C[C@@H](O)CN2C(=O)[C@H]([C@@H](C)O)NC1=O` [caspofungin] here?
A: The tolerability was “good tolerability was observed, with no described dose-limiting toxicity”.

Q: What about the protein bound [2] of the same molecule?
A: The protein bound was ~97%.

Q: And the CL [3]?
A: Its CL is 0.54 L/h.

Q: And the V [3]?
A: Its V is 7.03 L.

Q: What about the “Ke, elimination rate constant, mean” value ([4]; 1-h infusion, plasma LC-MS/MS, final two-compartment model) of the same molecule?
A: The value was 0.09 h⁻¹.

Q: What about the “V0, volume of distribution, median” value ([4]; final model, V = V0 · weight/78) of the same molecule?
A: Its value is 7.20 L/kg.

Q: What about the “Ke, elimination rate constant, median” value ([4]; final two-compartment model) of the same molecule?
A: Its value is 0.08 h⁻¹.

Q: And the “kcp, rate constant central to peripheral compartment, mean” value ([4]; final two-compartment model)?
A: The value was 0.44 h⁻¹.

Q: And the “kcp, rate constant central to peripheral compartment, median” value ([4]; final two-compartment model)?
A: Its value is 0.28 h⁻¹.

Q: And the “kpc, rate constant peripheral to central compartment, mean” value ([4]; final two-compartment model)?
A: The value was 0.46 h⁻¹.

Q: And the “kpc, rate constant peripheral to central compartment, median” value ([4]; final two-compartment model)?
A: Its value is 0.34 h⁻¹.
